# Target: Acetyl-coenzyme A synthetase, cytoplasmic (Homo sapiens, UniProt Q9NR19)
# Assay: Inhibition of N-terminal 6x-histidine tagged human ACSS2 expressed in insect cells assessed as reduction in pyrophosphate production using CoA and ATP incubated for 30 mins by pyrophosphatase coupled enzymatic assay
# Chain of Acetyl-coenzyme A synthetase, cytoplasmic (Q9NR19 whole entry): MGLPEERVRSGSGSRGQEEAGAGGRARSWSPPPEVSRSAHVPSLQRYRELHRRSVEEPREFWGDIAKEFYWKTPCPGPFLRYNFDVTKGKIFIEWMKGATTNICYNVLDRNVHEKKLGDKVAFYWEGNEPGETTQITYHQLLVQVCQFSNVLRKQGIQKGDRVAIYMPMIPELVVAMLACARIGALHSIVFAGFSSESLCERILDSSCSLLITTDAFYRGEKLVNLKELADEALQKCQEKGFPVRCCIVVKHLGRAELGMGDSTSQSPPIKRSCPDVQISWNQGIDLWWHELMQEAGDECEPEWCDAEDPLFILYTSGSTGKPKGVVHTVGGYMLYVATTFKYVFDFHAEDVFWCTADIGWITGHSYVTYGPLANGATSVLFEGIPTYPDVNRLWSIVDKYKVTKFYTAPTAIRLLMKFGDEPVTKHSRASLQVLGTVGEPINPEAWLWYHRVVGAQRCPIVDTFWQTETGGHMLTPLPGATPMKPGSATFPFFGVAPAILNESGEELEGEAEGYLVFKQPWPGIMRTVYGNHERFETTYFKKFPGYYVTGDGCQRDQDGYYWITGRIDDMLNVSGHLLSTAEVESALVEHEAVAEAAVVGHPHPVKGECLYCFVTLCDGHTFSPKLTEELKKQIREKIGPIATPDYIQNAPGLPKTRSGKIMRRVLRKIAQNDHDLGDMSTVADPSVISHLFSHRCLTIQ
row,SMILES,IC50 [nM]
1,CCn1c(C(O)(c2ccccc2)c2ccccc2)nc2ccc(F)c(F)c21,> 1000
2,CCn1c(C(O)(c2ccc(F)cc2F)c2ccc(F)cc2F)nc2ccc(C(=O)NC[C@@H](C)O)cc21,50 to 249
3,CCn1c(C(c2ccccc2)c2ccccc2)nc2ccc(C(=O)NC)cc21,> 1000
4,CCc1ccc2nc(C(O)(c3ccccc3)c3ccccc3)n(CC)c2c1,250 to 1000
5,CCn1c(C(O)(c2ccccc2)c2ccccc2)nc2ccc(Cl)cc21,250 to 1000
6,CCn1c(C(O)(c2ccccc2)c2ccccc2)nc2ccc(C(=O)NCC3CCOCC3)cc21,50 to 249
7,CCn1c(C(O)(c2ccccc2)c2ccccc2)nc2ccc(C(=O)NCC3CCNCC3)cc21,50 to 249
8,CCn1c(C(O)(c2ccccc2)c2ccccc2)nc2ccc(CCO)cc21,50 to 249
9,CCn1c(C(O)(c2ccccc2)c2ccccc2)nc2ccc(C(=O)N3CCC(O)CC3)cc21,> 1000
10,CCn1ccc(NC(=O)c2ccc3nc(C(O)(c4ccccc4)c4ccccc4)n(CC)c3c2)n1,> 1000
11,CCOc1cc2c(cn1)nc(C(O)(c1ccccc1)c1ccccc1)n2CC,250 to 1000
12,CCn1c(C(O)(c2ccccc2)c2ccccc2)nc2ccc(C(O)C(F)(F)F)cc21 (configuration not stated),50 to 249
13,CCn1c(C(O)(c2ccccc2)c2ccccc2)nc2ccc(C(=O)Nc3cnn(CCO)c3)cc21,50 to 249
14,CCn1c(C(O)(c2ccccc2)c2ccccc2)nc2ccc(CNC(C)=O)cc21,50 to 249
15,CCn1c(C(O)(c2ccccc2)c2ccccc2)nc2ccc(C(=O)NC[C@@H](C)O)c(OC)c21,250 to 1000
16,CNC(=O)c1ccc2nc(C(c3ccccc3)c3ccccc3)[nH]c2c1,> 1000
17,CCn1c(C(O)(c2ccccc2)c2ccccc2)nc2ccc(CNC(=O)NC)cc21,50 to 249
18,CCn1c(C(O)(c2ccccc2)c2ccccc2)nc2ccc(OC(C)C)cc21,> 1000
19,CCn1c(C(O)(c2ccccc2)c2ccccc2)nc2c(Cl)cc(C(=O)NC[C@@H](C)O)cc21,250 to 1000
20,CCn1c(C(O)(c2ccccc2)c2ccccc2)nc2cccc(Cl)c21,> 1000
21,C=CCC1(c2ccc3nc(C(O)(c4ccccc4)c4ccccc4)n(CC)c3c2)COC1,50 to 249
22,CCn1c(C(O)(c2ccccc2)c2ccccc2)nc2ccc(OCC(O)CO)cc21 (configuration not stated),250 to 1000
23,Cn1c(C(O)(c2ccc(F)cc2F)c2ccc(F)cc2F)nc2ccc(C(=O)NCCO)cc21,250 to 1000
24,CCn1c(C(O)(c2ccccc2)c2ccccc2)nc2ccc(C(=O)NC[C@@H](O)CO)cc21,50 to 249
25,CCn1c(C(O)(c2ccccc2)c2ccccc2)nc2ccc(C3(O)CCOC3)cc21 (configuration not stated),> 1000

row,SMILES,IC50 [nM]
1,CCn1c(C(O)(c2ccc(F)cc2)c2ncccc2F)nc2ccc(CCCO)cc21 (configuration not stated),50 to 249
2,CCn1c(C(O)(c2ccccc2)c2ccccc2)nc2ccc(C(=O)NC(C)CO)cc21 (configuration not stated),250 to 1000
3,CCn1c(C(O)(c2ccccc2)c2ccc(F)cc2F)nc2ccc(C(=O)NCCO)cc21 (configuration not stated),250 to 1000
4,CCn1c(C(O)(c2ccccc2)c2ccccc2)nc2ccc(C(=O)N3CC(O)C3)cc21,250 to 1000
5,CCn1c(C(O)(c2ccccc2)c2ccccc2O)nc2ccc(C(=O)NC[C@@H](C)O)cc21 (some centres not stated),50 to 249
6,CCn1c(C(O)(c2ccccc2)c2ccccc2)nc2ccc(C(F)(F)C(=O)NC[C@@H](C)O)cc21,50 to 249
7,Cc1ccc2nc(C(O)(c3ccccc3)c3ccn(C)c(=O)c3)n(C)c2c1 (configuration not stated),> 1000
8,CC(=O)OCC(O)(c1ccccc1)c1nc2ccc(C)cc2n1C (configuration not stated),250 to 1000
9,CCN1CC[C@H](NC(=O)c2ccc3nc(C(O)(c4ccccc4)c4ccccc4)n(CC)c3c2)C1,250 to 1000
10,CCCc1ccc2nc(C(O)(c3ccccc3)c3ccccc3)n(CC)c2c1,> 1000
11,C[C@@H](O)CNC(=O)c1ccc2nc(C(c3ccccc3)c3ccccc3)[nH]c2c1,> 1000
12,CCn1c(C(O)(c2ccccc2)c2ccccc2)nc2cc(F)c(C(=O)NC[C@@H](C)O)cc21,250 to 1000
13,C[C@@H](O)CNC(=O)c1ccc2nc(C(O)(c3ccccc3)c3ccccc3)n(-c3ccccc3)c2c1,250 to 1000
14,C[C@@H](O)CNC(=O)c1ccc2nc(C(O)(c3ccccc3)c3ccccc3)n(C3CCNC3)c2c1 (some centres not stated),> 1000
15,CCn1c(C(O)(c2ccccc2F)c2ccccc2F)nc2ccc(C(=O)NCCO)cc21,50 to 249
16,CCn1c(C(O)(c2ccccc2)c2ccccc2)nc2cc(OC)ncc21,250 to 1000
17,Cn1c(C(O)(c2ccccc2)c2ccccc2)nc2ccc(S(C)(=O)=O)cc21,50 to 249
18,CCn1c(C(O)(c2ccccc2)c2ccccc2)nc2ccc(OCCN(C)C)cc21,> 1000
19,CCn1c(C(O)(c2ccccc2)c2ccccc2)nc2ccc(S(=O)(=O)CC)cc21,50 to 249
20,CCn1c(C(O)(c2ccccc2)c2ccccc2)nc2ccc(C(=O)N[C@@H]3CCC[C@@H](O)C3)cc21,50 to 249
21,CCn1c(C(O)(c2ccccc2)c2ccccc2)nc2ccc(CNC(=O)[C@H](C)O)cc21,250 to 1000
22,C[C@@H](O)CNC(=O)c1ccc2nc(C(O)(c3ccccc3)c3ccccc3)n(C3CCOCC3)c2c1,> 1000
23,CCn1c(C(O)(c2ccccc2)c2ccccc2)nc2ccc(COc3ccccc3)cc21,250 to 1000
24,CCn1c(C(O)(c2ccc(F)cc2F)c2ccc(F)cc2F)nc2ccc(C(=O)NC)cc21,50 to 249
25,Cc1cccc2c1nc(C(O)(c1ccccc1)c1ccccc1)n2C,> 1000

row,SMILES,IC50 [nM]
1,CCn1c(C(O)(c2ccccc2)c2ccccc2)nc2ccc(C(=O)NCCN(C)C)cc21,250 to 1000
2,C[C@@H](O)CNC(=O)c1ccc2nc(C(O)(c3ccc(F)cc3)c3ncccc3F)n(C)c2c1 (some centres not stated),250 to 1000
3,CCn1c(C(O)(c2ccccc2)c2ccccc2)nc2ccc(OCCOC)cc21,> 1000
4,Cn1c(C(O)(c2ccccc2)c2ccc(Cl)cc2)nc2ccc(C#N)cc21 (configuration not stated),> 1000
5,CCn1c(C(O)(c2ccccc2)c2ccccc2)nc2ccc(CCC(=O)NC)cc21,50 to 249
6,CCn1c(C(O)(c2ccccc2)c2ccccc2)nc2ccc(C(N)=O)cc21,50 to 249
7,CCn1c(C(O)(c2ccccc2)c2ccccc2)nc2ccc(NC(=O)OC(C)(C)C)cc21,50 to 249
8,Cn1ccc(NC(=O)c2ccc3nc(C(O)(c4ccccc4F)c4ccccc4F)n(CCO)c3c2)n1,50 to 249
9,CCn1ccc(-c2ccc3nc(C(O)(c4ccccc4)c4ccccc4)n(CC)c3c2)n1,250 to 1000
10,CCn1c(C(O)(c2ccccc2)c2ccccc2)nc2ccc(C3CC3)cc21,250 to 1000
11,COCCn1c(C(O)(c2ccccc2)c2ccccc2)nc2ccc(C(=O)NC[C@@H](C)O)cc21,250 to 1000
12,CCn1c(C(O)(c2ccccc2)c2ccccc2)nc2cc(F)c(C(=O)NCCO)cc21,250 to 1000
13,COc1ccc(C(O)(c2ccccc2)c2nc3ccc(C)cc3n2C)cn1 (configuration not stated),> 1000
14,CCn1c(C(O)(c2ccccc2)c2ccccc2)nc2c1cnn2C,250 to 1000
15,CCn1c(C(O)(c2ccccc2)c2ccccc2)nc2ccc(F)cc21,> 1000
16,CC(O)Cn1c(C(O)(c2ccccc2)c2ccccc2)nc2ccc(C(=O)NC[C@@H](C)O)cc21 (some centres not stated),50 to 249
17,CCn1c(C(O)(c2ccccc2)c2ccccc2)nc2ccc(C(=O)NC)c(F)c21,50 to 249
18,CCN1CC[C@@H](NC(=O)c2ccc3nc(C(O)(c4ccccc4)c4ccccc4)n(CC)c3c2)C1,50 to 249
19,CCn1c(C(O)(c2ccccc2)c2ccccc2)nc2ccc(C(=O)N3CCC3)cc21,250 to 1000
20,C[C@@H](O)CNC(=O)c1ccc2nc(C(O)(c3ccccc3)c3ccccc3)n(C3CCNCC3)c2c1,> 1000
21,CCn1c(C(O)(c2ccccc2)c2ccccc2)nc2ccc(C(=O)Nc3ccccc3)cc21,50 to 249
22,CCn1c(C(O)(c2ccccc2)c2ccccc2)nc2ccc(C3(O)CCCC3)cc21,250 to 1000
23,CCONC(=O)c1ccc2nc(C(O)(c3ccccc3)c3ccccc3)n(CC)c2c1,50 to 249
24,CCn1c(C(O)(c2ccccc2)c2ccccc2)nc2ccnc(OCCO)c21,250 to 1000
25,C[C@@H](O)CNC(=O)c1ccc2nc(C(O)(c3ccccc3)c3ncccc3F)n(C)c2c1 (some centres not stated),250 to 1000

row,SMILES,IC50 [nM]
1,CCn1c(C(O)(c2ccccc2)c2ccccc2)nc2ccc(OCC3CC3)cc21,> 1000
2,CCn1c(C(O)(c2ccccc2)c2ccccc2F)nc2ccc(C(=O)NCCO)cc21 (configuration not stated),50 to 249
3,CCn1c(C(O)(c2ccccc2)c2ccccc2)nc2ccc(C(=O)N(C)C)cc21,250 to 1000
4,CCn1c(C(O)(c2ccccc2)c2ccccc2)nc2ccc(C(=O)N[C@@H]3CCC(=O)N(C)C3)cc21,250 to 1000
5,CCn1c(C(O)(c2ccccc2)c2ccccc2)nc2ccc(NC(=O)COC)cc21,50 to 249
6,CCn1c(C(O)(c2ccccc2)c2ccccc2)nc2ccc(C(OC(C)=O)C(F)(F)COC(C)=O)cc21 (configuration not stated),50 to 249
7,Cc1ccc2nc(C(O)(c3ccccc3)c3ncccc3F)n(C)c2c1 (configuration not stated),> 1000
8,CCn1c(C(O)(c2ccc(F)cc2)c2ccc(F)cc2)nc2ccc(C(=O)NC[C@@H](C)O)cc21,250 to 1000
9,CCn1c(C(O)(c2ccccc2)c2ccccc2)nc2ccc(C(=O)N3CCCC3)cc21,> 1000
10,Cn1cc(NC(=O)c2ccc3nc(C(O)(c4ccccc4F)c4ccccc4F)n(CCO)c3c2)cn1,50 to 249
11,CN1C[C@H](NC(=O)c2ccc3nc(C(O)(c4ccccc4)c4ccccc4)n(C)c3c2)CCC1=O,50 to 249
12,CCn1c(C(O)(c2ccccc2)c2ccc(F)cc2F)nc2ccc(C(=O)NC[C@@H](C)O)cc21 (some centres not stated),50 to 249
13,CCn1c(C(O)(c2ccccc2)c2cccc(-c3ncco3)c2)nc2ccc(C(=O)NC)cc21 (configuration not stated),> 1000
14,C[C@@H](O)CNC(=O)c1ccc2nc(C(O)(c3ccccc3)c3ccccc3)n(CC(O)CO)c2c1 (some centres not stated),250 to 1000
15,CCn1c(C(O)(c2ccccc2)c2ccccc2)nc2ccc(C(=O)NC3CCNC3)cc21 (configuration not stated),50 to 249
16,CCn1c(C(O)(c2ccccc2)c2ccccc2)nc2ccc(C(=O)Nc3ccc(OC)cc3)cc21,50 to 249
17,CCn1c(C(O)(c2ccccc2)c2ccccc2)nc2c(F)cc(C(=O)NC[C@@H](C)O)cc21,50 to 249
18,CN(C)C(=O)c1cccc(C(O)(c2ccccc2)c2nc3ccc(Cl)cc3n2C)c1 (configuration not stated),> 1000
19,CCn1c(C(O)(c2ccccc2)c2ccccc2)nc2ccc(C(=O)NCC(O)COC)cc21 (configuration not stated),50 to 249
20,CCn1c(C(O)(c2ccccc2)c2ccccc2)nc2ccc(OCC(C)O)cc21 (configuration not stated),> 1000
21,CCn1c(C(O)(c2ccccc2)c2ccccc2)nc2ccc(C(F)C#N)cc21 (configuration not stated),50 to 249
22,CNC(=O)c1cccc(C(O)(c2ccccc2)c2nc3ccc(Cl)cc3n2C)c1 (configuration not stated),> 1000

# — ChEMBL document CHEMBL4476868, “Benzimidazole derivatives and uses thereof” (2017)
